One data set deals with T1, human α1D receptor (Homo sapiens, UniProt P25100).
T1 sequence (P25100 1-572): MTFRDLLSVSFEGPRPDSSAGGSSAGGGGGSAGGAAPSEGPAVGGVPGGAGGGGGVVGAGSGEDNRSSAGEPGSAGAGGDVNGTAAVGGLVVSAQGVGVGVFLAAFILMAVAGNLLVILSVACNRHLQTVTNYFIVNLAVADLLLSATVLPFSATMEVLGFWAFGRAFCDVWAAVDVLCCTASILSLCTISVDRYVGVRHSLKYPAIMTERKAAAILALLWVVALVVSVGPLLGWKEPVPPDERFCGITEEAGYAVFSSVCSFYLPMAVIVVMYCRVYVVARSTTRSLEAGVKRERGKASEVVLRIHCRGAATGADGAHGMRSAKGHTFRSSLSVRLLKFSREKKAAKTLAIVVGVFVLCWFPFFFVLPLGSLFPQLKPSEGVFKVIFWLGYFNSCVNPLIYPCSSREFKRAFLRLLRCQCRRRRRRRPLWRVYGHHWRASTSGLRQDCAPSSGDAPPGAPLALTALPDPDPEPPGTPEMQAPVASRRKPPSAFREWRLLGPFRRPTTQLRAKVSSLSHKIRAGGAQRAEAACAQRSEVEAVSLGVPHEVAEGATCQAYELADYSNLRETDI
Kind of data set: Radioligand binding assay ([3H]prazosin) at cloned human α1D adrenergic receptor. Particulars: membranes of LM(tk-) cells, [3H]prazosin 0.5 nM; for Ki: read-out: hα1d pKi (converted). On the procedure: (§1) These cell lines were prepared by transfecting the cloned cDNA or cloned genomic DNA or constructs containing both genomic DNA and cDNA encoding the human u-adrenergic receptors as follows:
The cells were grown, in a controlled environment ([…]., 5% CO2), as monolayers in Dulbecco's modified Eagle's Medium (GIBCO, Grand Island, N.Y.) containing 25 mM glucose and supplemented with 10% bovine calf serum, 100 units/ml penicillin g, and 100 μg/ml streptomycin sulfate.
(§2) The construct involved ligating three partial overlapping fragments: a 5′ 0.6 kb HincII genomic clone, a central 1.8 EcoRI hippocampal cDNA clone, and a 3′ 0.6Kb PstI genomic clone. The hippocampal cDNA fragment overlaps with the 5′ and 3′ genomic clones so that the HincII and PstI sites at the 5′ and 3′ ends of the cDNA clone, respectively, were utilized for ligation. This full-length clone was cloned into the KpnI site of the expression vector, using the 5′ and 3′ KpnI sites of the fragment, derived from vector (i.e., pBluescript) and 3′-untranslated sequences, respectively. Stable cell lines were selected as described above. […] Radioligand Binding Assays: Transfected cells from culture flasks were scraped into 5 ml of 5 mM Tris-HCl, 5 mM EDTA, pH 7.5, and lysed by sonication. The cell lysates were centrifuged at 1000 rpm for 5 min at 4° C., and the supernatant was centrifuged at 30,000×g for 20 min at 4° C. The pellet was suspended in 50 mM Tris-HCl, 1 mM MgCl2, and 0.1% ascorbic acid at pH 7.5. Binding of the al antagonist [^3H]prazosin (0.5 nM, specific activity 76.2 Ci/mmol) to membrane preparations of LM(tk-) cells was done in a final volume of 0.25 ml and incubated at 37° C. for 20 min. Nonspecific binding was determined in the presence of 10 μM phentolamine. The reaction was stopped by filtration through GF/B filters using a cell harvester.

A further data set deals with T2, human α1B receptor (Homo sapiens, UniProt P35368).
T2 sequence (P35368 1-520): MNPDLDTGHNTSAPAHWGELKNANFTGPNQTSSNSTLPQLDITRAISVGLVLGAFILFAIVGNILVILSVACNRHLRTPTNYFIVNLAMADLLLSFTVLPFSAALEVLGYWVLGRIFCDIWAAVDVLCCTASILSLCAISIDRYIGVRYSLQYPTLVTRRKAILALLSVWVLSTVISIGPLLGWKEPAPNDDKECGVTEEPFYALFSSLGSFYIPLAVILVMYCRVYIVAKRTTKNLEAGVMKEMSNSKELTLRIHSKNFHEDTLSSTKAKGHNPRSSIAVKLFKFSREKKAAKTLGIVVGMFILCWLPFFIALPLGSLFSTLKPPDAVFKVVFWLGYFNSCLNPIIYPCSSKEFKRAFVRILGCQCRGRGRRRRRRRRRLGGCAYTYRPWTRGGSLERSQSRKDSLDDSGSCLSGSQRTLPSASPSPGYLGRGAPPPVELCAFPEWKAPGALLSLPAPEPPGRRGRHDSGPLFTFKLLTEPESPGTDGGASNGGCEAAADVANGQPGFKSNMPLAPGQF
Kind of data set: Radioligand binding assay ([3H]prazosin) at cloned human α1B adrenergic receptor. The note with it: membranes of LM(tk-) cells, [3H]prazosin 0.5 nM; for Ki: read-out: hα1b pKi (converted). As for the experimental part: as §1
The construct involved ligating the full-length containing EcoRI brainstem cDNA fragment from λ ZapII into the expression vector. Stable cell lines were selected as described above.
as §2

The target in another data set is T3, human α1A receptor (Homo sapiens, UniProt P35348).
T3 sequence (P35348 1-466): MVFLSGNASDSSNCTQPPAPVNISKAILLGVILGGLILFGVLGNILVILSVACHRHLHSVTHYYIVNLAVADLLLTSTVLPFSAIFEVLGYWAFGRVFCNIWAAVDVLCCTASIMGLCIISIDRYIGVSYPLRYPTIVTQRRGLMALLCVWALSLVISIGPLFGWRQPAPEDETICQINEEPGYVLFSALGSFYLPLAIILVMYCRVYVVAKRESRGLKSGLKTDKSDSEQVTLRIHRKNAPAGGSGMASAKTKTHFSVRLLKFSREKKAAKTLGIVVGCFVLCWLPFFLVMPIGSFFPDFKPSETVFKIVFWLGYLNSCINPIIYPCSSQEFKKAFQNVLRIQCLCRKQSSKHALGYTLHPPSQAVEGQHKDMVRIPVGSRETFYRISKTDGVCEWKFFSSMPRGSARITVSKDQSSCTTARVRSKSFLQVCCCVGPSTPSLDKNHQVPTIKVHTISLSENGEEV
Put plainly: Radioligand binding assay ([3H]prazosin) at cloned human α1A adrenergic receptor. Particulars: membranes of LM(tk-) cells, [3H]prazosin 0.5 nM; for Ki: read-out: hα1a pKi (converted). As for the experimental part:
as §1, §2

Counter-ions that a name gives are not always drawn.

The source of these data is patent publication US20020010186A1, “Dihydropyrimidines and uses thereof” (Synaptic Pharmaceutical Corporation, priority 1996, published 2002).

`COC(=O)C1=C(C)NC(=O)N(C(=O)NCCCN2CCC(c3ccccn3)CC2)C1c1ccc(F)c(F)c1` (centres unmarked) (as salt: hydrochloride) [Example 15, 6-(3,4-Difluorophenyl)-5-methoxycarbonyl-4-methyl-2-oxo-1-{N-[4-(2-pyridyl)-piperidine-1-yl]propyl}carboxamido-1,2,3,6-tetrahydropyrimidine Dihydrochloride] registered a melting point of 170 to 174 °C.

On to `CCC1=C(C(N)=O)C(c2ccc(F)c(F)c2)N(C(=O)NCCCN2CCC(C(=O)OC)(c3ccccc3)CC2)C(=O)N1` (single isomer, unassigned; (+)) [Example 14, (+)-5-Carboxamido-6-(3,4-difluorophenyl)-4-ethyl-1-{N-[3-(4-methoxycarbonyl-4-phenylpiperidin-1-yl)propyl]}carboxamido-2-oxo-1,2,3,6-tetrhydropyrimidine], for which the “hα1d pKi” value on human α1D receptor stood at 6.46. For the same compound, the “hα1b pKi” value at human α1B receptor is listed as 6.59. The “hα1a pKi” value on human α1A receptor is on record as 9.68.

Compound `COCC1=C(C(=O)OC)C(c2ccc(F)c(F)c2)N(C(=O)NCCCN2CCC(c3ccccc3)(c3cccs3)CC2)C(=O)N1` (centres unmarked) had a melting point of 157 to 159 °C.

Turning to `COC(=O)C1=C(C)NC(=O)N(C(=O)NCCCN2CCC(c3ccccn3)CC2)C1c1ccc2nonc2c1` (centres unmarked) [Example 16, 6-(3,4-Benzofurazan-5-yl)-5-methoxycarbonyl-4-methyl-2-oxo-1-{N-[4-(2-pyridyl)-piperidin-1-yl]propyl}carboxamido-1,2,3,6-tetrahydropyrimidine Dihydrochloride], the results for the Ki on human α1D receptor, at human α1B receptor and at human α1A receptor were 575 nM, 427 nM and 0.288 nM, respectively.

On to `COCN1C(C)=NC(C)=C(C(=O)NCCCN2CCC(C(=O)OC)(c3ccccc3)CC2)C1c1ccc(F)c(F)c1` (centres unmarked), for which the melting point was 53 to 57 °C.

In the case of `COC(=O)N1C(C)=NC(C)=C(C(=O)NCCCN2CCC(C(=O)OC)(c3ccccc3)CC2)C1c1ccc(F)c(F)c1` (centres unmarked), the melting point lay in the range of 55 to 57 °C.

The compound `COC(=O)C1=C(C)N=C(C)N(CCCC(O)CN2CCC(c3ccccn3)CC2)C1c1ccc(F)c(F)c1` (single isomer, unassigned; (+)) (as salt: HCl) [Example 56, (+)-6-(3,4-Difluorophenyl)-1,6-dihydro-1-(4-hydroxy-5-(4-(2-pyridyl)piperidin-1-yl)pentyl)-5-methoxycarbonyl-2,4-dimethylpyrimidine] displayed a melting point of 163 to 165 °C.

With `COCC1=NC(C)=C(C(=O)OC)C(c2ccc(F)c(F)c2)N1CCCCCN1CCC(c2ccc(C)cc2)(c2ccccc2C)CC1` (centres unmarked) (as salt: HCl), the melting point lay within 137 to 140 °C.

On to `COC(=O)C1=C(C)N=C(C)N(CCCCCN2CCC(C(=O)OC)(c3ccccc3)CC2)C1c1ccc(F)c(F)c1` (centres unmarked) (as salt: HCl) [Example 17, 6-(3,4-Difluorophenyl)-1,6-dihydro-5-methoxycarbonyl-1-(5-(4-methoxycarbonyl-4-phenylpiperidin-1-yl)-pentyl)-2,4-dimethylpyrimidine], for which the melting point was in the range of 170 to 176 °C.

On to `COCC1=C(C(=O)OC)C(c2ccc(F)c(F)c2)N(C(=O)NCCCN2CCC(c3ccccc3)(c3ccco3)CC2)C(=O)N1` (centres unmarked), for which the melting point was in the range of 153 to 155 °C.

As for `COC(=O)C1=C(C)N=C(C)N(CCCCCN2CCC(C(=O)OC)(c3ccccc3)CC2)C1c1ccc(F)c(F)c1` (centres unmarked) [Example 17, 6-(3,4-Difluorophenyl)-1,6-dihydro-5-methoxycarbonyl-1-(5-(4-methoxycarbonyl-4-phenylpiperidin-1-yl)-pentyl)-2,4-dimethylpyrimidine], at human α1D receptor, the “hα1d pKi” value came to 6.17. For the same compound, the “hα1b pKi” value at human α1B receptor worked out at 6.32.

The compound `COC(=O)C1=C(C)N=C(C)N(CCCCCNCCCc2ccccc2)C1c1ccc(F)c(F)c1` (centres unmarked) (as salt: HCl) [Example 55, 6-(3,4-Difluorophenyl)-1,6-dihydro-5-methoxycarbonyl-2,4-dimethyl-1-(5-(3-phenylpropylamino)pentyl)-pyrimidine] registered a melting point of 95 to 97 °C.

Regarding `COC(=O)C1=C(C)NC(=O)N(C(=O)NCCCN2CCC(c3ccccn3)CC2)C1c1ccc(F)c(F)c1` (centres unmarked) [Example 15, 6-(3,4-Difluorophenyl)-5-methoxycarbonyl-4-methyl-2-oxo-1-{N-[4-(2-pyridyl)-piperidine-1-yl]propyl}carboxamido-1,2,3,6-tetrahydropyrimidine Dihydrochloride], the Ki on human α1D receptor is 977 nM; at human α1B receptor, 468 nM; on human α1A receptor, 0.389 nM.

The melting point is the temperature of the solid-liquid transition.
